Data set [1] relates to Enterococcus faecalis BKM B-871. The data set can be described thus: Antibacterial activity (MIC/MBC), serial dilutions in liquid MH medium. Format: cell-based. To be noted: for MIC: 20 h, MH medium. On the procedure:
(§1) The antibacterial activity of compounds was determined against Bacillus subtilis BKM B-501, Staphylococcus aureus 209P, Enterococcus faecalis BKM B-871, and Micrococcus luteus BKM Ac-2230 strains (acquired from the All-Russia Collection of Microorganisms at the Institute for Biochemistry and Physiology of Microorganisms, Russian Academy of Sciences). The main parameters characterizing the antibacterial activity are the minimal inhibitory concentration (MIC) and minimal bactericidal concentration (MBC). […] MBC is the least concentration that causes the death of all cells.
(§2) MIC was quantified by inhibiting culture growth in a liquid medium with serial dilutions of compounds using a modified procedure [Amsterdam, D., “Susceptibility Testing of Antimicrobials in Liquid Media,” in Antibiotics in Laboratory Medicine, Ed. by Lorian, V., 4th ed., Baltimore: Williams and Wilkins, 1996, pp. 52-111].
(§3) Bacteria were cultured and tests were carried out on an MH liquid medium (Mueller-Hinton medium: a dry extract of beef broth, 4 g/L; starch, 1.5 g/L; casein hydrolyzate, 17.5 g/L; Sigma-Fluka Catalog No. 70192) at 37° C., 100% humidity, and under stirring. Cultures (4th through 7th receeding post-thawing) in the exponential growth phase were used for tests.
(§4) Therefore, a correction for absorption was applied in estimating the optical density of bacterial suspensions for each compound with account for its concentration in the well.
(§5) The protocol for experimental antibacterial activity determination for tested compounds was as follows. A cryovial with the test strain culture (Bacillus subtilis BKIVI B-501, Staphylococcus aureus 209P, Enterococcus faecalis BKM B-871, or Micrococcus luteus BKIVI Ac-2230) in a medium with 7% DMSO stored in liquid nitrogen, was rapidly defrosted, and 1.5 mL of the fresh MH medium was inoculated with 100 μL of the cell suspension. Cells were grown for one day at 37° C. and stirred on an orbital shaker at 150 rpm. The morphologic features of the strain and the absence of contamination with foreign bacteria were verified by: (a) inoculation on an agarized (15 g/L agar) MH medium and observation of the shape and color of the grown colonies and (b) examination of characteristic morphologic features under a microscope (Mikmed-2, LOMO, Russia) equipped with a 40× objective lens. Further bacteria were cultured in 1 mL of the liquid MH medium at 37° C. under stirring. The cells were reseeded every day. Cell cultures were used in tests starting with 3rd reseeding and ending with 6th one.
(§6) For testing, 5 μL of a bacterial suspension in the stationary growth phase was transferred to 1 mL of a sterile MH medium and incubated until the exponential growth phase was attained (3 to 5 h, 37° C., stirring at 150 rpm). To estimate the microorganisms concentration, the optical density (A) of the resulting bacterial culture was measured at a wavelength of 595 nm. The value of A=0.2 measured from a […] portion of the cell suspension in a 96-well plate, with a correction for the medium absorption applied, was set to correspond to 4×10^8 cells/mL for both strains used. Taking into account the cell concentration measurements, the suspension was diluted with the MH medium to a concentration of from 5×10^4 to 1×10^5 cells/mL and transferred to a sterile 96-well plate in an amount of 100 μL, per well. Then, the cells were added with tested compounds and twofold serial dilutions of these compounds in plate's wells were made.
(§7) The controls used were: 100 μL of an additive-free bacterial culture (four wells); a bacterial culture added with 1% DMSO or water in the same volume as in the wells with the maximal concentration of the tested compounds (four wells); and 100 μL of the sterile MH medium without bacteria and without tested compounds for control of occasional contamination in the plate (four wells).

Data set [2] deals with Staphylococcus aureus 209P. Described as above. Format: cell-based. To be noted: for MIC: 20 h, MH medium. On the procedure: as §1, §2, §3, §4, §5, §6, §7
For data set [3], the system named is Micrococcus luteus BKM Ac-2230. Described as above. In kind it is cell-based. To be noted: for MIC: 20 h, MH medium. On the procedure: as §1, §2, §3, §4, §5, §6, §7
Data set [4] relates to Bacillus subtilis BKM B-501. Described as above. Format: cell-based. To be noted: for MIC: 20 h, MH medium. The procedure:
as §1, §2, §3, §4, §5, §6, §7

Data set [5] relates to human leukocytes. The data set can be described thus: Cytotoxic activity against human leukocytes. To be noted: for toxic effect on human blood leukocytes (in words): concentrations of up to 1 mM, 3 h. The procedure:
Total leukocytes were isolated from human blood by unforced sedimentation using freshly collected venous blood from a healthy donor.
Blood (10 mL) added with 10 units/mL heparin was exposed for 2.5 h in the dark at a temperature of 15 to 18° C. A light-colored liquid supernatant (4 mL) was collected over the layer of sedimenting erythrocytes, washed three times with balanced Hanks's salt solution, and resuspended in the RPMI-1640 medium (added with 8% fetal bovine serum, 2 mM L-glutamine, and 10 mM HEPES; hereinafter, the complete medium).
The concentrations of leukocytes and erythrocytes in the suspension were determined by counts in Goryachev's chamber, after which the suspension was adjusted to a leukocyte concentration of (1.0±0.1)×10^6 cells/mL with the complete medium.
To determine the cytotoxicity of the tested compounds for human leukocytes, the cell suspension was transferred to wells of sterile 96-well plates, tested compounds were added with serial twofold dilutions (the range of tested concentrations was from 3.2 to 100 μM for GrD and gramicidin S; from 8 to 500 μM for compound XIII; and from 8 to 1000 μM for compounds V, VI, VII, VIII, IX, X, XI, XIV, XV, XIX, and Hem), and the mixture was carefully stirred. The experiment was performed in two replicas.
As controls served cells added with an equivalent amount of the solvent in which tested compounds were prepared, namely: water for compounds VII and X; an aqueous solution of DMSO for compounds V, VI, VIII, and IX; and DMSO for GrD, gramicidin S, Hem, XI, XIII, XIV, XV, and XIX. An additional control was an additive-free leukocyte suspension.
Cells were incubated with tested compounds for 3 h (37° C., 5% CO2, 100% humidity). Leukocyte death values were quantified using fluorescence microscopy. Staining with propidium iodide (it permeates only into dead cells nuclei) and Hoechst 33342 (it stains all nuclei) was used to recognize dead and living cells. Cells were incubated for 15 min in plates with propidium iodide and Hoechst 33342 (37° C., 5% CO2), and then the plates were placed under a microscope for analysis.
The dead cell fraction was derived from the fluorescence images of cells obtained in the blue (Hoechst 33342) and red (propidium iodide) spectral ranges using an Axio Observer (Zeiss, Germany) fluorescence microscope equipped with a 10× objective lens (Plan-Neofluar 10×/0.3). The following sets of fluorescence filters were used. For propidium iodide: a 530/585-nm bandpass excitation filter, a 600-nm cut-off dichroic minor, and a 615-nm longpass barrier filter for analysis. For Hoechst 33342: a 359/372-nm bandpass excitation filter, a 395-nm cut-off dichroic mirror, and a 397-nm longpass barrier filter for analysis.
A digital camera recorded three types of cell images: (a) an image in the transmitted white light; (b) a blue fluorescence image obtained with UV excitation, and (c) a red fluorescence image obtained with green light excitation. At least four fields of view were photographed per well in various regions of a well.

Non-standard residues stand in square brackets, D forms with d. Residues, ends and D or L forms follow the SMILES beside them. Orn = NCCC[C@H](N)C(=O)O Bounds are passed on as bounds.

As to `C=CC1=C(C)c2cc3[n-]c(cc4nc(cc5[n-]c(cc1n2)c(C)c5CCC(=O)NCC(O)CO)C(CCC(=O)NCC(O)CO)=C4C)c(C)c3C=C.[Cl-].[Fe+3]` (stereo not drawn) [Compound XVII, Protohemin IX 6,7-bis-N-(2,3-Dihydroxypropyl)amide], the MBC in data set [1], in data set [2], in data set [3] and in data set [4] was above 200 µM in each case. The MIC in data set [1], in data set [2], in data set [3] and in data set [4] was above 200 µM each time.
Take `C=CC1=C(C)c2cc3[n-]c(cc4nc(cc5[n-]c(cc1n2)c(C)c5CCC(=O)NCCc1c[nH]cn1)C(CCC(=O)NCCc1c[nH]cn1)=C4C)c(C)c3C=C.[Cl-].[Fe+3]` [Compound XIX, 6,7-bis-Histaminyl-Protohemin IX]: the MBC entry in data set [1] is “Not reached”; in data set [2] it was “Not reached”; in data set [3], 25 µM; in data set [4], “Not reached”. The MIC in data set [1] was 200 µM; in data set [2], 200 µM; in data set [3], 25 µM; in data set [4], 100 ± 25 µM. Moreover, the “Death of leukocytes in the presence of 1 mM of compound” value (from here on “Death of leukocytes”) in data set [5] (3 h incubation) was determined as 13 ± 1%. For the same compound, the “concentration at which a weak toxic effect on leukocytes appears” value in data set [5] (3 h incubation) was around 1000 µM.
For `C=CC1=C(C)c2cc3[n-]c(cc4nc(cc5[n-]c(cc1n2)c(C)c5CCC(=O)NCCC(=O)NCCc1c[nH]cn1)C(CCC(=O)NCCC(=O)NCCc1c[nH]cn1)=C4C)c(C)c3C=C.[Cl-].[Fe+3]` [IX], the MBC in data set [1] is >400^3 μM; in data set [2], 400 µM; in data set [3] it was 25 µM; in data set [4], 100 ± 25 µM. The minimum inhibitory concentration (MIC) in data set [1] was found to be 200 µM; in data set [2], 100 µM; in data set [4], 50 ± 13 µM. In addition, the “Death of leukocytes” value in data set [5] (3 h incubation) is 3.1 ± 0.3%. The “toxic effect on human blood leukocytes (in words)” value (shortened to “toxic effect … (in words)”) in data set [5] is given as “did not cause the death”.
For `C=CC1=C(C)c2cc3[n-]c(cc4nc(cc5[n-]c(cc1n2)c(C)c5CCC(=O)NC(CO)CO)C(CCC(=O)NC(CO)CO)=C4C)c(C)c3C=C.[Cl-].[Fe+3]` [Compound XVI, Protohemin IX 6,7-bis-N-(1,3-Dihydroxypropan-2-yl)amide], the MBC in data set [1], in data set [2], in data set [3] and in data set [4] was above 200 µM in each case. Further, the MIC in data set [1], in data set [2], in data set [3] and in data set [4] was above 200 µM throughout.
For the compound `CC(C)C[C@@H]1NC(=O)[C@H](CCCN)NC(=O)[C@H](C(C)C)NC(=O)[C@@H]2CCCN2C(=O)[C@@H](Cc2ccccc2)NC(=O)[C@H](CC(C)C)NC(=O)[C@H](CCCN)NC(=O)[C@H](C(C)C)NC(=O)[C@@H]2CCCN2C(=O)[C@@H](Cc2ccccc2)NC1=O` [Gramicidin S, reference compound] (cyclo(L[dF]PV[Orn]L[dF]PV[Orn])), the “toxic effect … (in words)” value in data set [5] is given as “fully due to the toxic effect of the solvent”.
With “6(7)-Mono(Arg-Gly-Asp)-Protohemin IX [Compound XI]”, the MBC entry is “Not reached” in data set [1], “Not reached” in data set [2], 200 µM in data set [3] and 25 ± 7 µM in data set [4]. Besides, the MIC in data set [1] was found to be 100 µM; in data set [2] it was 12.5 µM; in data set [3], 50 µM; in data set [4] it was 12.5 ± 4 µM. Besides, in data set [5] (3 h incubation), the “Death of leukocytes” value is on record as 8.6 ± 0.4%. The “toxic effect … (in words)” value in data set [5] is recorded as “fully due to the toxic effect of the solvent”.
Turning to `C=CC1=C(C)c2cc3[n-]c(cc4nc(cc5[n-]c(cc1n2)c(C)c5CCC(=O)NCCC(=O)N[C@@H](Cc1c[nH]cn1)C(=O)O)C(CCC(=O)NCCC(=O)N[C@@H](Cc1c[nH]cn1)C(=O)O)=C4C)c(C)c3C=C.[Cl-].[Fe+3]` [Compound X], in data set [5] (3 h incubation), the “Death of leukocytes” value stood at 4.9 ± 0.3%. The “toxic effect … (in words)” value in data set [5] is given as “did not cause the death”.

As a reminder, the MBC is the smallest concentration meeting the test's criterion for killing. Low readings indicate greater bactericidal potency, high ones weaker bactericidal potency. A word on the MIC: it is the lowest concentration found to suppress growth.
